In patent US20230302150A1, “ANTIBODY-TLR AGONIST CONJUGATES, METHODS AND USES THEREOF” (Ambrx, Inc., priority 2020, published 2023):
Read-outs that look alike come from different tables or passages of the source.

Legend:
TLR8 = target: T1, TLR8 (Homo sapiens, UniProt Q9NR97); assay: TLR8 reporter assay; format: cell-based
T1 sequence (Q9NR97 27-1041): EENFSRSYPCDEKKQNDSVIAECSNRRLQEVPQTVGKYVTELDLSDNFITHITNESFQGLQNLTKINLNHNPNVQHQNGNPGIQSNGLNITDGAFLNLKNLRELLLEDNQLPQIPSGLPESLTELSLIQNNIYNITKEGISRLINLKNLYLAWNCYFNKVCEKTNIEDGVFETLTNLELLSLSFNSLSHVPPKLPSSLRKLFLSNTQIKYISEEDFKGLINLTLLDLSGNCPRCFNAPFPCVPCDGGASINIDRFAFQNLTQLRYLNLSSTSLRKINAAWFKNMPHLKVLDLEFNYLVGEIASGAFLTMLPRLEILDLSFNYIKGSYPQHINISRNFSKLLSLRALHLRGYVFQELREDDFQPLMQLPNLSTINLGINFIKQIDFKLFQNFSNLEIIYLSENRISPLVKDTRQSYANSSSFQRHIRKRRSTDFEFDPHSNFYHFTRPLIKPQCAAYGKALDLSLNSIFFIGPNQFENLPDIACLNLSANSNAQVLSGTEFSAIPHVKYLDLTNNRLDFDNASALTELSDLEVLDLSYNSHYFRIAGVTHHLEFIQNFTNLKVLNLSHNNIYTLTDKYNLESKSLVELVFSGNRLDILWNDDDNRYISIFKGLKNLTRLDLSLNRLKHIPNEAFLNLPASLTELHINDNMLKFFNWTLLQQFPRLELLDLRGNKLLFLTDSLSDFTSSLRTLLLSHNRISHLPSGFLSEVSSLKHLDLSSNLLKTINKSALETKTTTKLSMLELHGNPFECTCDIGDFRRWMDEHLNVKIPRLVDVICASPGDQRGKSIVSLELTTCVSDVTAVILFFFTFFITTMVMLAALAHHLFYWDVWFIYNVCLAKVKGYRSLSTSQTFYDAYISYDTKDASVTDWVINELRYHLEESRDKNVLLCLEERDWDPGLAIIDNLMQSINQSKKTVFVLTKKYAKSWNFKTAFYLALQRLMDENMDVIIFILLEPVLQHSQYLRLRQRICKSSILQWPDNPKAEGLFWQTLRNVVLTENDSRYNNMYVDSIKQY

hTLR7 = target: T2, hTLR7 (Homo sapiens, UniProt Q9NYK1); assay: HEK-Blue hTLR7 reporter assay (NF-kB-induced SEAP, Quanti-Blue); format: cell-based
T2 construct: expressed in transfected cells; host or cells: HEK-Blue hTLR7 reporter cell line
T2 sequence (Q9NYK1 27-1049): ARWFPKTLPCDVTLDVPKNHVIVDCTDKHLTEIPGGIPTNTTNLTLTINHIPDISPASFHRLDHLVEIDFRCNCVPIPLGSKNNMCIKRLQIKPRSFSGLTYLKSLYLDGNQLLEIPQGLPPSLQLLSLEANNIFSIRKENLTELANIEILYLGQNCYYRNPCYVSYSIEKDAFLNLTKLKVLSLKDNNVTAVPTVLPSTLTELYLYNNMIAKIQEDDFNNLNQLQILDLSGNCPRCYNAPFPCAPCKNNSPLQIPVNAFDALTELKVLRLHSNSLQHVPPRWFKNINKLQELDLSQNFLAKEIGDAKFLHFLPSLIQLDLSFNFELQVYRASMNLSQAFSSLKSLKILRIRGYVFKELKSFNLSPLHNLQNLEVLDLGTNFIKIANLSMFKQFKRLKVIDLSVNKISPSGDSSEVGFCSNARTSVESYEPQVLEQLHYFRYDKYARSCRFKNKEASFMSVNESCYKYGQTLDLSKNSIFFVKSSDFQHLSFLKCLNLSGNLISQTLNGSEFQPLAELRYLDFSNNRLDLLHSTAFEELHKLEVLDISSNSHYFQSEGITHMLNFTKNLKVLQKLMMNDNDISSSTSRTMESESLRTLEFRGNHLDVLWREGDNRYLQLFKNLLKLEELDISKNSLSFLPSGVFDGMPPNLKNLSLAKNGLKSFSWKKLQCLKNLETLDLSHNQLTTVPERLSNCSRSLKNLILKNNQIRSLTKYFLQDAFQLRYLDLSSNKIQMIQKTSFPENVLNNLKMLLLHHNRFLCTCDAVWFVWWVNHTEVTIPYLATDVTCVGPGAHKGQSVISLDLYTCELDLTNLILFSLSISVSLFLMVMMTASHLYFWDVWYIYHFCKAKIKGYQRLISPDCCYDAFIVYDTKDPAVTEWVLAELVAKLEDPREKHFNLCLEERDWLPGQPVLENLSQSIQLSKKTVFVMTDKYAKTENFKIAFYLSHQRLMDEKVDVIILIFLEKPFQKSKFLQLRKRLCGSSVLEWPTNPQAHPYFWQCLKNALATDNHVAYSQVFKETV
Procedure: HEK-Blue™ hTLR7 cells were incubated in HEK-Blue™ Detection medium and stimulated with increasing concentrations of TLR7 or TLR8 or TLR7/8 agonists. […] The EC50 was determined from dose-response curve using Prism Software.

[1] = test system: SKOV3 HER2 high expressing tumor cell line / RAW-Blue cells; assay: RAW-Blue co-culture assay with SKOV3 tumor cells; format: cell-based, human; conditions: conjugated to anti-HER2 antibody; data not shown
Procedure: (§1) RAW-Blue™ cells (Invivogen, San Diego, CA) were co-cultured with human tumor cells with different levels of HER2 expression level at 1:1 E:T ratio with total number of 1 million cells per well in the 96 wells plate. Different concentration of small molecule TLR7 agonist and conjugated ISACs, (Immune Stimulating Antibody Conjugates), were added to the co-culture cell medium. After 24 h incubation, the levels of NF-kB-induced SEAP from the RAW-Blue™ cells were determined by Quanti-Blue detection reagents (Invivogen, San Diego, CA) with readings at OD 655 nm. The dose-response curves were generated using Prism Software.

[2] = test system: SKBR3 HER2 high expressing tumor cell line / RAW-Blue cells; assay: RAW-Blue co-culture assay with SKBR3 tumor cells (HER2 ISACs); format: cell-based, human
Procedure: as §1

Structure (SMILES)	EC50 (TLR8)	EC50 (hTLR7; Table 11, TLR7 activities, read-out: EC50)	EC50 (hTLR7; text to Table 11, TLR7, read-out: EC50)	tumor dependent ISAC activity [1]	EC50 (hTLR7; Table 12, TLR7 agonists attached to a linker, read-out: TLR Agonist Payload + Linkers EC50)	EC50 (hTLR7; Table 15, drug linker, read-out: TLR Agonist + Linker (DL) - EC50)	EC50 (hTLR7; Table 15, pAF containing final metabolite, read-out: TLR Agonist + Linker + nnAA (DL-pAF) - EC50)	EC50 (hTLR7; Table 19, TLR7, drug-linkers with PEG shielding, read-out: EC50)	tumor dependent ISAC activity [2]
CCCN(CCC)C(=O)C1=Cc2ccc(-c3ccc(C(=O)N4CCCC4)cc3)cc2N=C(N)C1 [Motolimod, reference compound]	1430 nM	–	–	–	–	–	–	–	–
CCCCOc1nc(N)c2[nH]c(=O)n(Cc3ccc(CN4CCC(CCNC(=O)c5cc(F)c(N)c(F)c5)CC4)cc3)c2n1 [AXC-887, 4-amino-N-(2-(1-(4-((6-amino-2-butoxy-8-oxo-7H-purin-9(8H)-yl)methyl)benzyl)piperidin-4-yl)ethyl)-3,5-difluorobenzamide]	3730 nM	4.6 nM	< 10 nM	–	–	–	–	–	–
CCCCOc1nc(N)c2[nH]c(=O)n(Cc3ccc(CNC(=O)CCOCCON)cc3)c2n1 [AXC-863]	–	–	–	potent dose dependent activities only in the presence of HER2 high expressing tumor cell lines	864 nM	864 nM	287 nM	320 nM	potent dose dependent activities only in the presence of HER2 high expressing tumor cell lines
